Assays:
[1] = target: purified human, His-tagged PRC2 complex (Homo sapiens (Human), UniProt O75530); assay: Hot Spot HMT assay, inhibition of PRC2 enzymatic activity; format: biochemical; details: 10 nM PRC2 complex, 1 μM 3H-SAM, core histone H3, 10-point dose-response
Procedure, shortened: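 Five-subunit PRC2 complex (EZH2, EED, SUZ12, AEBP2, RbAp48; 10 nM) preincubated 20 min at 30° C with compound (top 1.0 μM) and 0.05 mg/ml core histone H3 in Tris-HCl, 1% DMSO. Started with 1 μM [3H]SAM, 1 hr at 30° C; tritiated H3 measured by filter binding and scintillation.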

[2] = test system: bone marrow derived CD34+ cells differentiated into erythroid progenitor cells; assay: Percentage of F cells (fetal hemoglobin containing cells) by flow cytometry in differentiated CD34+ cells; format: cell-based, human; details: 7-day treatment; for fold increase in % F cells: vs vehicle
Description: (§1) Cell Culture and differentiation protocol. Human bone marrow derived CD34+ cells from healthy donors were purchased from StemCell (#70002.2). The CD34+ cells were differentiated using the STEMdiff™ Erythroid kit (StemCell #100-0074) according to manufacturer's instructions. The CD34+ cells were differentiated for 14 days, and the differentiation medium consisted of StemSpan™ SFEM II media and 10% of STEMdiff™ Erythroid Supplement E2 (10×). The CD34+ cells were thawed and plated in a 12-well plate (Corning #3512) at a density of 40,000 cells/well in 1 mL of differentiation media. 100 μL of STEMdiff™ Erythroid Supplement E2 (10×) was added to each well on Day 2, 4, 9 and 11 during differentiation. On day 7, cells were passaged and replated at a density of 167,000 cells/well in a 12-well plate. Flow cytometry was performed every 7 days to assess the stages of differentiation using anti-human CD71 and anti-human glycophorin A (CD235a) antibody (StemCell #60106AZ; #60152FI).
(§2) Treatment of differentiated CD34+ cells with compound Example 32 or hydroxyurea (HU). After 14 days of differentiation, cells were plated in a 12-well plate at a density of 150,000 cells/well in 1 mL differentiation media in quadruplets. The next day, cells were treated with vehicle, 7 concentrations of compound Example 32 in concentrations ranging from 15.625 nM to 1 μM ([…] serial dilution) and 20 μM of HU. 100 μL of STEMdiff™ Erythroid Supplement E2 (10×) was added to each well on Day 2 and 4. Cells were treated with vehicle, compound Example 32, or HU for 7 days and were then harvested for RT-qPCR and flow cytometry.
Flow Cytometry. The cell pellets harvested for flow cytometry analysis were collected in a V-shaped 96-well polypropylene plate (ThermoFisher #249944). The cells were washed with PBS and resuspended in 100 μL of PBS. The cells were first stained with eFluor 450 viability dye (diluted 1:250 in cold PBS; Invitrogen #65-0863-14) for 5 minutes on ice in the dark followed by incubation in Fc receptor blocking solution for 10 minutes (BioLegend #422302). […] Cells were washed twice and resuspended in FACS buffer and then analyzed by flow cytometry. Data was acquired using SONY SA3800 cytometer (software version 2.0.4.13263) and analyzed using FlowJo.
Bone marrow derived CD34+ cells from two healthy human donors (donor A and donor B) were differentiated into erythroid progenitor cells (erythroblasts) expressing Glycophorin A and CD71. Fourteen-day differentiated cells were then treated with vehicle (veh), different concentrations of compound Example 32, or 20 μM HU for 7 days and cells were analyzed for increase in fetal hemoglobin levels at both mRNA and protein levels. […]

[3] = test system: HBG1 mRNA; assay: HBG1 mRNA levels by RT-qPCR in differentiated CD34+ cells; format: cell-based, human; details: 7-day treatment
Description: as §1, §2
(§3) RNA extraction and RT-qPCR analysis. The cell pellets harvested for mRNA analysis were first washed once with PBS and then resuspended in 600 μL of RLT lysis buffer (from the Qiagen kit) supplemented with 1% of beta-mercaptoethanol (Sigma-Aldrich #M6250). […] The extracted RNA was then quantified using a NanoDrop™ 8000 Spectrophotometer (ThermoFisher #ND8000-GL, software version 2.3.2). […]

[4] = test system: HBG2 mRNA; assay: HBG2 mRNA levels by RT-qPCR in differentiated CD34+ cells; format: cell-based, human; details: 7-day treatment
Description: as §1, §2, §3

[5] = Donor A, normalized to RPL27, relative to vehicle
[6] = Donor B, normalized to RPL27, relative to vehicle

Sequence of purified human, His-tagged PRC2 complex (O75530 whole entry): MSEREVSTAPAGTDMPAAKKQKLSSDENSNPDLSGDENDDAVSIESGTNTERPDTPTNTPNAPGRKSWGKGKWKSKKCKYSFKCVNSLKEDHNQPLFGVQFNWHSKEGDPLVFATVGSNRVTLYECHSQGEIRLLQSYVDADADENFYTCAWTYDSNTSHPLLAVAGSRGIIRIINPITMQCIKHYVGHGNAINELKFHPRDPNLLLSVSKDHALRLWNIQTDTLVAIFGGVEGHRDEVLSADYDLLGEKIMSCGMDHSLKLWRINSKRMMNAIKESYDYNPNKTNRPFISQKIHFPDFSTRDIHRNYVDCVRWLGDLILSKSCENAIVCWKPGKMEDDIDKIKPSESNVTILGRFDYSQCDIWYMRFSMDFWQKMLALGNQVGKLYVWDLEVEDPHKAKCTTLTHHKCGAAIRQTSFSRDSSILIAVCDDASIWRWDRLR
Sequence of purified human, His-tagged PRC2 complex (Q15910 whole entry partner): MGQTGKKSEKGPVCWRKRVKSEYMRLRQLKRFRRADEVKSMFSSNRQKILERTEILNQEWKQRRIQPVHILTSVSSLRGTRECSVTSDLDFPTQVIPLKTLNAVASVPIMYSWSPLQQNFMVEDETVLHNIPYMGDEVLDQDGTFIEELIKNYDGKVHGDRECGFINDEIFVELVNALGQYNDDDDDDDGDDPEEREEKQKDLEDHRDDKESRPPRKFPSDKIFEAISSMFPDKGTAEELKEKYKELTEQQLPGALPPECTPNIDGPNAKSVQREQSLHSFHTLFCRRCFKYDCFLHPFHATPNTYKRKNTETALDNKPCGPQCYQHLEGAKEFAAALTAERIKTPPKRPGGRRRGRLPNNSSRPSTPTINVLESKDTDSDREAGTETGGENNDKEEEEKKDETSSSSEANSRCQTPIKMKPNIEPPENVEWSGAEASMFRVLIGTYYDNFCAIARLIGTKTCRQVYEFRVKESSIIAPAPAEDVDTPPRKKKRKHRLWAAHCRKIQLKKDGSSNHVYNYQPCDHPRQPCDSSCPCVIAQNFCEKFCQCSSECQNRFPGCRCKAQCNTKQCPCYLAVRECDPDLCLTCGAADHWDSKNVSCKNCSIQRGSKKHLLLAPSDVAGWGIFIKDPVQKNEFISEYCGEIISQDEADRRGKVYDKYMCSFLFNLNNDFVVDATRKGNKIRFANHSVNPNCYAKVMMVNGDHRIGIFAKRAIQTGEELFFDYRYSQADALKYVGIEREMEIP
Sequence of purified human, His-tagged PRC2 complex (Q15022 whole entry partner): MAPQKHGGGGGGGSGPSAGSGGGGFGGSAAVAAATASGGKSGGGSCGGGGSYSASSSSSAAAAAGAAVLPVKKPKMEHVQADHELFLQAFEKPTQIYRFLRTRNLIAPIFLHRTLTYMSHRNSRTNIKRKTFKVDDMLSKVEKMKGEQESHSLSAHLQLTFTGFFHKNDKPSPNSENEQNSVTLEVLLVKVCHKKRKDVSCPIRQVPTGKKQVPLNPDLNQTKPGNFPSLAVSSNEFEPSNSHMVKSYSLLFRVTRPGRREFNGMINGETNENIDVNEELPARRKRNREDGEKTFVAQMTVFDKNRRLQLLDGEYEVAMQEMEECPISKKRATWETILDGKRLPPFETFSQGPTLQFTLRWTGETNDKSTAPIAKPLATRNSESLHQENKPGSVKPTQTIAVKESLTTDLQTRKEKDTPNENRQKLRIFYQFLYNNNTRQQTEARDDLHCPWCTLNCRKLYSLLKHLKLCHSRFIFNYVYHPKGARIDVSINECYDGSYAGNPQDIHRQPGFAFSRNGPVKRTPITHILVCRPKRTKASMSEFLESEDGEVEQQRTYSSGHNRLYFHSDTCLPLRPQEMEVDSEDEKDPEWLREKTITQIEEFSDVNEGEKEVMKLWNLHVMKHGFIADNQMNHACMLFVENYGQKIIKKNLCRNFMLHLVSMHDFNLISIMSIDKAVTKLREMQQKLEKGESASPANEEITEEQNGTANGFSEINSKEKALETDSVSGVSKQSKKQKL
Sequence of purified human, His-tagged PRC2 complex (Q6ZN18 whole entry partner): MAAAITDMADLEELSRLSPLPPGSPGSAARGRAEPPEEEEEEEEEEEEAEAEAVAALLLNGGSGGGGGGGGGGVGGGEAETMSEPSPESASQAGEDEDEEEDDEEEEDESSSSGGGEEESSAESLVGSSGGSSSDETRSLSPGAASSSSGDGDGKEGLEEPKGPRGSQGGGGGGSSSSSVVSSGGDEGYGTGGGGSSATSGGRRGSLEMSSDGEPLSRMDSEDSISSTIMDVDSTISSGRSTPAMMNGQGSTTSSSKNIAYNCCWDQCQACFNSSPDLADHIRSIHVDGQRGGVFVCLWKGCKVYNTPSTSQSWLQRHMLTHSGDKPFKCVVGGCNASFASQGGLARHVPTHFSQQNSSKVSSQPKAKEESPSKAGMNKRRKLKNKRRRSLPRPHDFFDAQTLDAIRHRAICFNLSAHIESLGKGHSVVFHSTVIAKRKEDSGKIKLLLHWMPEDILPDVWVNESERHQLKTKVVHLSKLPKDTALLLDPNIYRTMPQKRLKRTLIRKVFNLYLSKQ
Sequence of purified human, His-tagged PRC2 complex (Q09028 whole entry partner): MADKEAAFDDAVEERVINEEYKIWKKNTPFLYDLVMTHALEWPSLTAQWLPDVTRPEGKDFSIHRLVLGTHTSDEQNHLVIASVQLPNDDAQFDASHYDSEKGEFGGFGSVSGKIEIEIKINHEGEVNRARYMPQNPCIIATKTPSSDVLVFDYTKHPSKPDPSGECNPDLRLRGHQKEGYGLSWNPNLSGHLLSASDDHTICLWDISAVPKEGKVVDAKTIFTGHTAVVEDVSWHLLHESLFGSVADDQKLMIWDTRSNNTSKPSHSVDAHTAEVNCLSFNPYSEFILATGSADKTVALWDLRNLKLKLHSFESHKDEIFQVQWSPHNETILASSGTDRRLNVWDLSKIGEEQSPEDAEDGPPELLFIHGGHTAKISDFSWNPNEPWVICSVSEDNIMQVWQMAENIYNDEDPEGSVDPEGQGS

Cc1cc(CN(C)C)ccc1-c1cnc(NCc2c(F)ccc3c2CCO3)n2cc(C#N)nc12 [Example 32]
IC50 [1]: 100 to 500 nM
% F cells (live cells with fetal hemoglobin) ([2]; donors A and B, 14-day differentiated cells): 30-40%
fold increase in % F cells ([2]; donors A and B, 14-day differentiated cells, 15.625 nM to 1 μM): 2.6-2.7 fold
fold increase in HBG1 mRNA levels [3, 5]: 4 fold
fold increase in HBG1 mRNA levels [3, 6]: 4 fold
fold increase in HBG2 mRNA levels [4, 5]: 9 fold
fold increase in HBG2 mRNA levels [4, 6]: 4 fold

NC(=O)NO [HU, hydroxyurea, reference compound]
fold increase in % F cells ([2]; Donor A, 20 μM): 1.9 fold
fold increase in % F cells ([2]; Donor B, 20 μM): 1.3 fold
fold increase in HBG1 mRNA levels ([3]; Donor B, 20 μM, relative to vehicle): 1.7 fold
fold increase in HBG2 mRNA levels ([4]; Donor A, 20 μM, relative to vehicle): 2.7 fold

Cc1nc(C2CC2)ncc1-c1cnc(NCc2c(F)ccc3c2CCO3)n2cc(C(=O)O)nc12 [Example 7, 8-(2-cyclopropyl-4-methylpyrimidin-5-yl)-5-(((5-fluoro-2,3-dihydrobenzofuran-4-yl)methyl)amino)imidazo[1,2-c]pyrimidine-2-carboxylic acid]
IC50 [1]: < 100 nM

N#Cc1cn2c(NCc3c(F)ccc4c3CCO4)ncc(-c3ccc(C(=O)N4CCOCC4)cc3)c2n1 [Example 181, 5-(((5-fluoro-2,3-dihydrobenzofuran-4-yl)methyl)amino)-8-(4-(morpholine-4-carbonyl)phenyl)imidazo[1,2-c]pyrimidine-2-carbonitrile]
IC50 [1]: < 100 nM

CN1CCN(C(=O)c2cc(-c3cnc(NCc4c(F)ccc5c4CCO5)n4cc(C#N)nc34)n(C)n2)CC1 [Example 229, 5-(((5-fluoro-2,3-dihydrobenzofuran-4-yl)methyl)amino)-8-(1-methyl-3-(4-methylpiperazine-1-carbonyl)-1H-pyrazol-5-yl)imidazo[1,2-c]pyrimidine-2-carbonitrile]
IC50 [1]: < 100 nM

N#Cc1cn2c(NCc3c(F)ccc4c3CCO4)ncc(-c3ccc(CN4CC(F)(F)C4)cc3)c2n1 [Example 51, 8-(4-((3,3-difluoroazetidin-1-yl)methyl)phenyl)-5-(((5-fluoro-2,3-dihydrobenzofuran-4-yl)methyl)amino)imidazo[1,2-c]pyrimidine-2-carbonitrile]
IC50 [1]: < 100 nM

N#Cc1cn2c(NCc3c(F)ccc4c3CCO4)ncc(-c3cccnc3CO)c2n1 [Example 148, 5-(((5-fluoro-2,3-dihydrobenzofuran-4-yl)methyl)amino)-8-(2-(hydroxymethyl)pyridin-3-yl)imidazo[1,2-c]pyrimidine-2-carbonitrile]
IC50 [1]: < 100 nM

Cc1cc(-c2cnc(NCc3c(F)ccc4c3CCO4)n3cc(C(N)=O)nc23)n(C)n1 [Example 11, 8-(1,3-dimethyl-1H-pyrazol-5-yl)-5-(((5-fluoro-2,3-dihydrobenzofuran-4-yl)methyl)amino)imidazo[1,2-c]pyrimidine-2-carboxamide]
IC50 [1]: < 100 nM

Cc1cc(-c2cnc(NCc3cccc4c3OCO4)n3cc(C#N)nc23)n(C)n1 [Example 27, 5-((benzo[d][1,3]dioxol-4-ylmethyl)amino)-8-(1,3-dimethyl-1H-pyrazol-5-yl)imidazo[1,2-c]pyrimidine-2-carbonitrile]
IC50 [1]: > 500 nM

N#Cc1cn2c(NCc3c(F)ccc4c3CCO4)ncc(-c3ccc(-c4nnn[nH]4)cc3)c2n1 [Example 190, 8-(4-(1H-tetrazol-5-yl)phenyl)-5-(((5-fluoro-2,3-dihydrobenzofuran-4-yl)methyl)amino)imidazo[1,2-c]pyrimidine-2-carbonitrile]
IC50 [1]: < 100 nM

CN(C)CCc1cccc(-c2cnc(NCc3c(F)ccc4c3CCO4)n3cc(C#N)nc23)c1 [Example 217, 8-(3-(2-(dimethylamino)ethyl)phenyl)-5-(((5-fluoro-2,3-dihydrobenzofuran-4-yl)methyl)amino)imidazo[1,2-c]pyrimidine-2-carbonitrile]
IC50 [1]: < 100 nM

Source: US20240398811A1, “PRC2 INHIBITORS FOR USE IN TREATING BLOOD DISORDERS” (ORIC Pharmaceuticals, Inc., priority 2021, published 2024)
